# In the supplement of paper PMC10307832:
# Assays:
# Assay in all cases: relative viability (nuclei count vs DMSO), 5 days (fraction); higher = more cells survive
# [1] = tested on: NCI-H3122
# In short: (§1)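 Dosing by pin tool came one day after lung cancer cell lines were seeded in 1536-well plates, using either one drug or a fixed anchor-drug dose plus five library-drug doses (not always all listed) in √10 steps. After 5 days, nuclei were counted on 4× images. Relative viability is treated-well nuclei count divided by vehicle-well nuclei count, and values are medians of duplicate plates.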
# [2] = tested on: NCI-H522
# In short: as §1
# [3] = tested on: LU99A
# In short: as §1
# [4] = tested on: NCI-H1650
# In short: as §1
# [5] = tested on: LK-2
# In short: as §1
# [6] = tested on: PC-3 [JPC-3]
# In short: as §1
# [7] = tested on: NCI-H2170
# In short: as §1
# [8] = tested on: NCI-H2228
# In short: as §1
# [9] = tested on: HCC-827
# In short: as §1
# [10] = tested on: NCI-H441
# In short: as §1
# [11] = tested on: EKVX
# In short: as §1
# [12] = tested on: NCI-H1355
# In short: as §1
# [13] = tested on: SW 1573
# In short: as §1
# [14] = tested on: H3255
# In short: as §1
# [15] = tested on: NCI-H1993
# In short: as §1
# [16] = tested on: HOP-62
# In short: as §1
# [17] = tested on: UMC-11
# In short: as §1
# [18] = tested on: LXF-289
# In short: as §1
# [19] = tested on: NCI-H2405
# In short: as §1
# [20] = tested on: LCLC-97TM1
# In short: as §1
# [21] = tested on: EPLC-272H
# In short: as §1
# [22] = tested on: SK-LU-1
# In short: as §1
# [23] = tested on: ChaGo-K-1
# In short: as §1
compound,measurement,setting,value
CCNC(=O)c1noc(-c2cc(C(C)C)c(O)cc2O)c1-c1ccc(CN2CCOCC2)cc1 [Luminespib] + Nc1nc2[nH]cc(CCc3ccc(C(=O)N[C@@H](CCC(=O)O)C(=O)O)cc3)c2c(=O)[nH]1 [Pemetrexed] (partner 0.2 µM),relative viability,[1]; first compound 0.002 µM,0.203
same,relative viability,[1]; first compound 0.006325 µM,0.182
same,relative viability,[1]; first compound 0.02 µM,0.184
same,relative viability,[1]; first compound 0.06325 µM,0.135
same,relative viability,[1]; first compound 0.2 µM,0.111
same,relative viability,[2]; first compound 0.002 µM,1.01
same,relative viability,[2]; first compound 0.006325 µM,0.974
same,relative viability,[2]; first compound 0.02 µM,0.855
same,relative viability,[2]; first compound 0.06325 µM,0.675
same,relative viability,[2]; first compound 0.2 µM,0.353
same,relative viability,[3]; first compound 0.002 µM,0.192
same,relative viability,[3]; first compound 0.006325 µM,0.198
same,relative viability,[3]; first compound 0.02 µM,0.177
same,relative viability,[3]; first compound 0.06325 µM,0.168
same,relative viability,[3]; first compound 0.2 µM,0.127
same,relative viability,[4]; first compound 0.002 µM,0.404
same,relative viability,[4]; first compound 0.006325 µM,0.368
same,relative viability,[4]; first compound 0.02 µM,0.426
same,relative viability,[4]; first compound 0.06325 µM,0.152
same,relative viability,[4]; first compound 0.2 µM,0.137
same,relative viability,[5]; first compound 0.002 µM,0.299
same,relative viability,[5]; first compound 0.006325 µM,0.159
same,relative viability,[5]; first compound 0.02 µM,0.221
same,relative viability,[5]; first compound 0.06325 µM,0.0902
same,relative viability,[5]; first compound 0.2 µM,0.0524
same,relative viability,[6]; first compound 0.002 µM,0.706
same,relative viability,[6]; first compound 0.006325 µM,0.342
same,relative viability,[6]; first compound 0.02 µM,0.681
same,relative viability,[6]; first compound 0.06325 µM,0.357
same,relative viability,[6]; first compound 0.2 µM,0.272
same,relative viability,[7]; first compound 0.002 µM,0.291
same,relative viability,[7]; first compound 0.006325 µM,0.267
same,relative viability,[7]; first compound 0.06325 µM,0.219
same,relative viability,[7]; first compound 0.2 µM,0.141
same,relative viability,[8]; first compound 0.002 µM,0.346
same,relative viability,[8]; first compound 0.006325 µM,0.405
same,relative viability,[8]; first compound 0.02 µM,0.257
same,relative viability,[8]; first compound 0.06325 µM,0.079
same,relative viability,[8]; first compound 0.2 µM,0.136
same,relative viability,[9]; first compound 0.002 µM,0.22
same,relative viability,[9]; first compound 0.006325 µM,0.27
same,relative viability,[9]; first compound 0.02 µM,0.236
same,relative viability,[9]; first compound 0.06325 µM,0.159
same,relative viability,[9]; first compound 0.2 µM,0.158
same,relative viability,[10]; first compound 0.002 µM,0.263
same,relative viability,[10]; first compound 0.006325 µM,0.309
same,relative viability,[10]; first compound 0.02 µM,0.248
same,relative viability,[10]; first compound 0.06325 µM,0.153
same,relative viability,[10]; first compound 0.2 µM,0.116
same,relative viability,[11]; first compound 0.002 µM,0.417
same,relative viability,[11]; first compound 0.006325 µM,0.255
same,relative viability,[11]; first compound 0.02 µM,0.408
same,relative viability,[11]; first compound 0.06325 µM,0.258
same,relative viability,[11]; first compound 0.2 µM,0.115
same,relative viability,[12]; first compound 0.002 µM,1.12
same,relative viability,[12]; first compound 0.006325 µM,1.02
same,relative viability,[12]; first compound 0.02 µM,0.627
same,relative viability,[12]; first compound 0.06325 µM,0.895
same,relative viability,[12]; first compound 0.2 µM,0.14
same,relative viability,[13]; first compound 0.002 µM,0.818
same,relative viability,[13]; first compound 0.006325 µM,0.898
same,relative viability,[13]; first compound 0.02 µM,0.189
same,relative viability,[13]; first compound 0.06325 µM,0.0968
same,relative viability,[13]; first compound 0.2 µM,0.0903
same,relative viability,[14]; first compound 0.002 µM,0.579
same,relative viability,[14]; first compound 0.006325 µM,0.497
same,relative viability,[14]; first compound 0.02 µM,0.529
same,relative viability,[14]; first compound 0.06325 µM,0.536
same,relative viability,[14]; first compound 0.2 µM,0.335
same,relative viability,[15]; first compound 0.002 µM,0.566
same,relative viability,[15]; first compound 0.006325 µM,0.577
same,relative viability,[15]; first compound 0.02 µM,0.557
same,relative viability,[15]; first compound 0.06325 µM,0.284
same,relative viability,[15]; first compound 0.2 µM,0.367
same,relative viability,[16]; first compound 0.002 µM,0.314
same,relative viability,[16]; first compound 0.006325 µM,0.4
same,relative viability,[16]; first compound 0.02 µM,0.34
same,relative viability,[16]; first compound 0.06325 µM,0.156
same,relative viability,[16]; first compound 0.2 µM,0.125
same,relative viability,[17]; first compound 0.002 µM,0.737
same,relative viability,[17]; first compound 0.006325 µM,0.843
same,relative viability,[17]; first compound 0.02 µM,0.762
same,relative viability,[17]; first compound 0.06325 µM,0.322
same,relative viability,[17]; first compound 0.2 µM,0.161
same,relative viability,[18]; first compound 0.002 µM,0.91
same,relative viability,[18]; first compound 0.006325 µM,0.915
same,relative viability,[18]; first compound 0.02 µM,1.09
same,relative viability,[18]; first compound 0.06325 µM,0.333
same,relative viability,[18]; first compound 0.2 µM,0.136
same,relative viability,[19]; first compound 0.002 µM,1.08
same,relative viability,[19]; first compound 0.02 µM,0.915
same,relative viability,[19]; first compound 0.06325 µM,0.183
same,relative viability,[19]; first compound 0.2 µM,0.179
same,relative viability,[20]; first compound 0.002 µM,0.189
same,relative viability,[20]; first compound 0.006325 µM,0.164
same,relative viability,[20]; first compound 0.06325 µM,0.0959
same,relative viability,[20]; first compound 0.2 µM,0.0922
same,relative viability,[21]; first compound 0.002 µM,0.41
same,relative viability,[21]; first compound 0.006325 µM,0.266
same,relative viability,[21]; first compound 0.02 µM,0.335
same,relative viability,[21]; first compound 0.06325 µM,0.133
same,relative viability,[21]; first compound 0.2 µM,0.113
same,relative viability,[22]; first compound 0.002 µM,1.01
same,relative viability,[22]; first compound 0.006325 µM,0.779
same,relative viability,[22]; first compound 0.02 µM,0.825
same,relative viability,[22]; first compound 0.06325 µM,0.244
same,relative viability,[22]; first compound 0.2 µM,0.206
same,relative viability,[23]; first compound 0.002 µM,0.27
same,relative viability,[23]; first compound 0.006325 µM,0.253
same,relative viability,[23]; first compound 0.02 µM,0.253
same,relative viability,[23]; first compound 0.06325 µM,0.248
same,relative viability,[23]; first compound 0.2 µM,0.206
